Results reported in patent US11964935B2, “Gingerol derivative having inhibitory activity against biofilm formation and pharmaceutical composition comprising same as effective ingredient for preventing or treating biofilm-caused infection symptom” (Korea University Research and Business Foundation, Sejong …, priority 2017, dated 2024).
“Also recorded” adds a separate entry of the source.

Columns and labels:
P. aeruginosa PA14 [1] = assay: Growth inhibition assay; assay type: cell-based, Pseudomonas aeruginosa; settings: 100 μM, 24 h
Protocol: A 5% dilution of overnight culture of P. aeruginosa PA14 (OD595=1.0) containing either a positive control or the synthesized compound (0-100 μM) was inoculated into wells of a 96-well polystyrene microtiter plate (Sigma-Aldrich). The plate was incubated at 37° C. for 24 h. OD595 of the suspension culture was measured on the VICTOR ×5 multimode plate reader.

P. aeruginosa PA14 [2] = assay: Static biofilm formation assay; assay type: cell-based, Pseudomonas aeruginosa
Protocol: Overnight culture of P. aeruginosa PA14 (OD595=1.0) was diluted (1:20) with the AB medium (300 mM NaCl, 50 mM MgSO4, 0.2% vitamin-free casamino acids, 10 mM potassium phosphate, 1 mM L-arginine, and 1% glucose, pH 7.5) (1:20) containing with either positive controls or synthesized compounds (0-100 μM). The dilutions were aliquoted into borosilicate bottles, and the bottles were incubated at 37° C. for 24 h without agitation. After that, OD595 of the cell suspension was measured on the VICTOR ×5 multimode plate reader. The biofilm cells attached to the bottle were washed two times with phosphate buffered saline (PBS; 137 mM NaCl, 2.7 mM KCl, 10 mM Na2HPO4, and 2 mM KH2PO4, pH 7.2) and stained with 0.1% crystal violet for […] Next, the stained biofilm cells were eluted with 100% ethyl alcohol, and OD540 was measured on the VICTOR ×5 multimode plate reader. The biofilm formation was quantified by dividing OD540 with OD595.

LasR [3] = target: T1, LasR (Pseudomonas aeruginosa, UniProt P25084); assay: LasR reporter gene assay (E. coli reporter strain, luminescence, competition with OdDHL); assay type: cell-based; settings: compound 1 μM or 10 μM in the presence of 1 μM OdDHL (compound 1a)
T1 construct: expressed in transfected cells; host or cells: E. coli DH5α (printed DHSα) co-transformed with pJN105L and pSC11
Protocol: This assay was conducted by modifying a previously reported method. E. coli DHSα co-transformed with two plasmids, pJN105L (LasR expression plasmid) and pSC11 (lasI::lacZ fusion plasmid), was used as a bioassay reporter strain. Overnight culture of the reporter strain with 10 μg/mL gentamicin and 50 μg/mL ampicillin was diluted in the Luria-Bertani (LB) medium (1:100). Then, the reporter strain (optical density at 595 nm [OD595] was 0.3) mixed with either a positive control or the synthesized compound was incubated with OdDHL (Sigma-Aldrich, St. Louis, MO., USA) and 0.4% arabinose (Sigma-Aldrich). After incubation at 37° C. for 1.5 h, OD595 was measured on a VICTOR ×5 multimode plate reader (PerkinElmer, Waltham, Mass., USA). The β-galactosidase activity was determined using a Tropix plus kit (Applied Biosystems, USA), and luminescence was measured on the VICTOR ×5 multimode plate reader. RLU ratio was quantified by dividing luminescence with OD595.
LasR-binding affinity of the synthesized gingerols (compounds 4-10) with various alkyl chain lengths was determined by measuring luminescence of an E. coli reporter strain. The reporter strain carried two plasmids, pJN105L (LasR expression plasmid) (Lee, J. H.; Lequette, Y.; Greenberg, E. P. Activity of purified QscR, a Pseudomonas aeruginosa orphan quorum-sensing transcription factor. Mol. Microbiol. 2006, 59, 602609.) and pSC11 (las1::lacZ fusion plasmid) (Chugani, S. A.; Whiteley, M.; Lee, K. M.; D'Argenio, D.; Manoil, C.; Greenberg, E. P. QscR, a modulator of quorum-sensing signal synthesis and virulence in Pseudomonas aeruginosa. Proc. Natl. Acad. Sci. U.S.A. 2001, 98, 27522757.), which enabled assay of competitive binding of OdDHL with each gingerol derivative 4-10. Antagonistic activities of the synthesized compounds at 1 μM or 10 μM were determined by measuring luminescence in the presence of 1 μM OdDHL (compound 1a) and presented as relative luminescence unit (RLU) ratio. Three compounds (compounds 1b, 1c, and 1d) served as positive controls. […] Just as the LasR inhibition, inhibition of biofilm formation also strengthened as the carbon chain was extended at 10 μM ((B) of FIG. 3). However, inhibition of biofilm formation decreased with 9-gingerol (compound 9) and 10-gingerol (compound 10) at 100 μM ((C) of FIG. 3) because of increased bacterial growth inhibition. […] This effect may be due to the fact that compounds 9 and 10 act as a surfactant, which inhibits bacterial growth. Agonistic activities of compounds 4-10 in an E. coli reporter assay system in the absence of OdDHL were next examined.

P. aeruginosa PA14 [4] = assay: Dynamic biofilm formation assay (drip-flow reactor, CLSM); assay type: cell-based, Pseudomonas aeruginosa; settings: for Biofilm thickness / Biofilm volume: 10 μM compound, Comstat2; for Biofilm thickness / Biofilm volume / Biofilm formation in CLSM images, in words: 48 h drip-flow reactor; for Biofilm formation in CLSM images, in words: compared with DMSO or compound 1c
Protocol: Glass slides were dipped into a Petri dish containing 2 mL of a P. aeruginosa PA14 suspension (OD595=1.0) and 18 mL of the AB medium, followed by incubation at 37° C. for 24 h to let the cells adhere to the slides. The slides were then inserted into a drip-flow reactor (DFR-110, BioSurface, Mont., USA). The AB medium with either a positive control or the synthesized compound (0-10 μM) was fed into the reactor continuously via a peristaltic pump (Masterflex C/L tubing pumps, Cole-Parmer, IL, USA) at 0.3 mL/min After operation of the reactor at 37° C. for 48 h, the cells on the slides were washed two times with PBS. The biofilm cells were stained with fluorescein isothiocyanate-labeled type IV ConA (Sigma-Aldrich) and SYPRO Ruby (Ruby, Invitrogen, Carlsbad, CA, USA) for 15 min, respectively. CLSM images were captured via a 20× objective lens (W N-Achroplan 20×/0.5 W [DIC] M27) with green fluorescence (ConA, excitation wavelength of 490 nm, emission wavelength of 525 nm) and red fluorescence (Ruby, excitation wavelength of 470 nm, emission wavelength of 618 nm) and were analyzed in the Zen 2011 software (Carl Zeiss, Jena, Germany). For quantification, biofilm volume (μm^3/μm^2) and average thickness (μm) were measured by means of Comstat2 in ImageJ.
A dynamic biofilm formation assay of compounds 41 and 42 was performed in a drip-flow reactor. Compound 1c served as a positive control, and DMSO served as a negative control. After 48 h drip-flow reactor operation, the biofilm was stained with Ruby and concanavalin A (ConA). Ruby (red) is a reagent for staining protein, and ConA (green) is for carbohydrate of biofilm. As shown in (A) of FIG. 8, the biofilm in the presence of DMSO formed with typical mushroom-like morphology. […] Biofilm volume and thickness with compound 41 were the lowest among the three groups (Table 1).

P. aeruginosa = settings: cited from earlier work
LasR [5] = target: T1, LasR; assay: LasR reporter gene assay (E. coli reporter strain, luminescence, competition with OdDHL); assay type: cell-based; settings: compound 1 μM; compound 1a 0, 0.1, 1, 10 and 100 μM

T1 sequence (P25084 whole entry): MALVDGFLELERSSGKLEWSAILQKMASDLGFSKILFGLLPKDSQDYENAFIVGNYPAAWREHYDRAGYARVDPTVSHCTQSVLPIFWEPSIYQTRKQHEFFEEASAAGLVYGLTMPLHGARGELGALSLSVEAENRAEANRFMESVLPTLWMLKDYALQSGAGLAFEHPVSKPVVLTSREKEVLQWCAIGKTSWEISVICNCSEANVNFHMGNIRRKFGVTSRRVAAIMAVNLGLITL

Compound: CCCCCCCCC(O)CC(=O)CCc1ccc(O)c(OC)c1 (stereo not drawn) [Compound 9, 5 -Hydroxy-1-(4-hydroxy-3-methoxyphenyl)tridecan-3-one]
- Bacterial growth inhibition (P. aeruginosa PA14 [1]): inhibited bacterial growth significantly
- Inhibition of biofilm formation at 100 μM, in words (P. aeruginosa PA14 [2]; 24 h, static): decreased

Compound: CCCCCCC[C@@H](O)CC(=O)CCc1ccc(O)c(OC)c1 [Compound 42, (R)-5-Hydroxy-1-(4-hydroxy-3-methoxyphenyl)dodecan-3-one]
- LasR-antagonistic activity / LasR-binding affinity (RLU ratio), in words (LasR [3]): much stronger LasR-binding affinity than compound 1c
- Biofilm thickness (P. aeruginosa PA14 [4]; CLSM): 13.9 ± 0.1 μm
- Biofilm volume (P. aeruginosa PA14 [4]; CLSM): 9.7 ± 1.1 μm^3/μm^2
- Biofilm formation in CLSM images, in words (P. aeruginosa PA14 [4]; 10 μM): relatively thin and sparse; also recorded: inhibited biofilm formation more effectively than compound 1c did
- Bacterial growth inhibition (P. aeruginosa PA14 [1]): bacterial growth inhibition was not observed
- Biofilm formation relative to compound 1c (P. aeruginosa PA14 [2]; static assay, 10 μM, effect of compound 1c set to 100%): 72%

Compound: CCCCCCCCCC(O)CC(=O)CCc1ccc(O)c(OC)c1 (stereo not drawn) [Compound 10, 5-Hydroxy-1-(4-hydroxy-3-methoxyphenyl)tetradecan-3-one]
- Bacterial growth inhibition (P. aeruginosa PA14 [1]): inhibited bacterial growth significantly
- Inhibition of biofilm formation at 100 μM, in words (P. aeruginosa PA14 [2]; 24 h, static): decreased

Compound: CCCCCCCC(O)CC(=O)CCc1ccc(O)c(OC)c1 [Compound 1c, (S)-8-gingerol, reference compound]
- Biofilm thickness (P. aeruginosa PA14 [4]; CLSM): 17.0 ± 0.4 μm
- Biofilm volume (P. aeruginosa PA14 [4]; CLSM): 17.0 ± 0.4 μm^3/μm^2
- Biofilm formation in CLSM images, in words (P. aeruginosa PA14 [4]; 10 μM): relatively thin and sparse

Compound: CCCCC[C@H](O)CC(=O)CCc1ccc(O)c(OC)c1 [Compound 1b, (S)-6-gingerol]
- Biofilm formation and production of virulence factors (previously demonstrated) (P. aeruginosa; competition with OdDHL for LasR): reduces biofilm formation and production of virulence factors

Compound: O=C1C=C(Br)/C(=C/Br)O1 [Compound 1d, (Z)-4-bromo-5-(bromomethylene)furan-2(5H)-one]
- Expression of virulence factors (prior report) (P. aeruginosa; interference with P. aeruginosa QS systems): inhibits the expression of virulence factors

Compound: CCCCCCC[C@@H](O)CC(=O)/C=C/c1ccc(O)c(OC)c1 [Compound 41, (R,E)-5-Hydroxy-1-(4-hydroxy-3-methoxyphenyl)dodec-1-en-3-one]
- Binding reversibility to LasR (LasR [5]): binds reversibly to LasR
- LasR-antagonistic activity / LasR-binding affinity (RLU ratio), in words (LasR [3]): stronger LasR-binding affinity
- Biofilm thickness (P. aeruginosa PA14 [4]; CLSM): 10.3 ± 0.1 μm
- Biofilm volume (P. aeruginosa PA14 [4]; CLSM): 7.4 ± 0.2 μm^3/μm^2
- Biofilm formation in CLSM images, in words (P. aeruginosa PA14 [4]; 10 μM): relatively thin and sparse; also recorded: inhibited biofilm formation more effectively than compound 1c did
- Volume of carbohydrates in biofilm compared to the other groups (P. aeruginosa PA14 [4]; ConA staining, CLSM, 10 μM): 47-74%
- Volume of proteins in biofilm compared to the other groups (P. aeruginosa PA14 [4]; Ruby staining, CLSM, 10 μM): 23-56%
- Bacterial growth inhibition (P. aeruginosa PA14 [1]): bacterial growth inhibition was not observed
- Inhibition of biofilm formation, in words (P. aeruginosa PA14 [2]; 10 μM, 24 h, static): greater inhibition of biofilm formation
